Experimental data published in patent publication US5514662A, “Use of amphotericin B derivatives as protease inhibitors” (priority 1991, dated 1996).

Assays:
papain = papain (Carica papaya, UniProt P00784); assay: Activity of DABF-AmB on various proteases: papain; format: biochemical; details: 1 μM
Protocol: (§1) DABF-AmB was tested, at a concentration of 1 μM, on various proteases (papain, chymotrypsin, kallicrein, leucocyte elastase, cathopsin D and recombinant protease p10) under conditions and in the presence of substrates appropriate for each of the proteases tested.

protease p10 = protease p10 (Human immunodeficiency virus type 1 (BRU ISOLATE), UniProt P03367); assay: Activity on recombinant protease p10; format: biochemical; details: 1 μM for DABF-AmB
Protocol: as §1

gp120 = assay: Membrane expression of gp120 in HIV-1 infected Jurkat and CEM cells; format: cell-based; details: 10 μM continuous, both cell lines, 8th day
Protocol: Membrane expression of CD4 and gp120 is measured by means of the monoclonal antibodies OKT4 (0,5 μg/ml), 110-4 (2 μg/ml) respectively, which are stained using a […].
The fluorescence is measured by means of a FACSTAR cell counter (BECTON DICKINSON, MOUNTAIN VIEW, Calif.). The results are expressed as mean fluorescence intensity.
The anti-gpl10 monoclonal antibody 110-4 (GENETIC SYSTEMS CORP., Seattle, Wash.) also recognizes gP120 at the surface of the T cells.
Immunofluorescence analyses are carried out on the 8th day of the infection in order to verify whether the inhibition of HIV replication by DABF-AmB results in 10 a reduced membrane expression of viral antigens.

human thymocytes = assay: Distribution of CD4 and CD8 cells in uninfected activated thymocytes; format: cell-based
Protocol: (§2) Human thymuses were obtained during corrective heart surgery operations on 3 to 7 year old children. The tissues were cut into fragments and the red blood cells were removed by treating with […] buffer. After washing in PBS buffer, cellular suspensions were prepared in an RPMI 1640 medium containing 10% of human serum type […]. Dead cells were removed by passing over a sterile nylon wool column.
(§3) The cells were infected with HIV LAV/BRU as indicated above in the general procedures, and then re-inoculated in the presence of PHA, of anti-CD2 or anti-CD3 antibodies and of IL2 and cultured for 10 days at a rate of 1×10^7 cells/ml. After 10 days, viral production was evaluated by measuring the RT activity in the supernatants and the distribution of CD4/CD8 was evaluated by double fluorescence flow cytometry by means of FITC-labelled anti-CD4 antibodies (OKT4) and phycoerythrin-labelled anti-CD8 antibodies (OKT8). DABF-AmB was added to the cultures immediately after infection and maintained during the entire duration of the culture.

HIV LAV/BRU = assay: Protection of CD4 cells in cultures of HIV-infected human thymocytes; format: cell-based, HIV-1
Protocol: as §2, §3

SIVmac251 = assay: Formation of syncytia in HUT78 cells infected with SIVmac251; format: cell-based, SIV
Protocol: HUT78 cells were inoculated in 96-well plates in an amount of 2×10^4 cells per well, in […]. They were infected with various viral concentrations and DABF-AmB was added immediately after the infection, at various concentrations. The formation of syncytia was evaluated after 3 and 5 days by direct reading under an inverted microscope (semi-quantitative test).

HUT78 cells = assay: Cytotoxicity in HUT78 cells; format: cell-based
HeLa-Ohio cells = assay: Cytotoxicity in HeLa-Ohio cells; format: cell-based, human; details: 20 μM for 4 weeks

Sequence of papain (P00784 134-345): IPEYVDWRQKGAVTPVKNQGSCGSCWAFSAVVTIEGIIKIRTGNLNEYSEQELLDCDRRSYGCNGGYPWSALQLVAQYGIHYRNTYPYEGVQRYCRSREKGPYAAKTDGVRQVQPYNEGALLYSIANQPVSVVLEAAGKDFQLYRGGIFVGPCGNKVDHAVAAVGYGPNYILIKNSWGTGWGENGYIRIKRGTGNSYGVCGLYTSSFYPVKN

With C[C@@H]1[C@H](O)[C@@H](C)/C=C/C=C/C=C/C=C/C=C/C=C/C=C/[C@H](O[C@@H]2O[C@H](C)[C@@H](O)[C@H](NCC(=O)[C@@H](O)[C@@H]3OC(c4ccccc4)OC[C@H]3O)[C@@H]2O)C[C@@H]2O[C@](O)(C[C@@H](O)C[C@@H](O)[C@H](O)CC[C@@H](O)C[C@@H](O)CC(=O)O[C@H]1C)C[C@H](O)[C@H]2C(=O)O (stereo partly drawn) [DABF-AmB, 1-deoxy-1-amino-4,6-O-benzylidene-D-fructosyl-AmB] the inhibition of papain (papain) was “does not inhibit”, the “inhibition of protease p10” value (protease p10) was “does not inhibit” and the “membrane expression of gp120” value (gp120) was “substantially reduces”. For the same molecule, the “distribution of the CD4 and CD8 cells in uninfected thymocytes” value (human thymocytes; even at 10 μM, PHA, anti-CD2 or anti-CD3 activated) was “does not significantly modify”, the “CD4+ CD8+ population in uninfected thymocytes” value (human thymocytes; up to 10 μM) was “slight increase” and the “RT activity in the supernatants of infected thymocytes” value (HIV LAV/BRU; 10 days) was “decrease in RT activity”. For the same molecule, the “CD4+ cells in infected thymocyte cultures” value (HIV LAV/BRU; in proportion to the concentration) was “preservation or the reappearance of CD4+ cells”, the “infection of CD4+ thymocytes and distribution of subpopulations of thymic cells” value (HIV LAV/BRU; infected cultures) was “inhibits the infection of CD4+ thermocytes by HIV and restores a normal distribution of the subpopulations of thymic cells” and the formation of syncytia (SIVmac251; 0.1 μM, 10 TCID50, 3 days) was “-”. The formation of syncytia (SIVmac251; 0.1 μM, 10 TCID50, 5 days) was “+”, the formation of syncytia (SIVmac251; 0.1 μM, 100 TCID50, 3 days) was “+” and the formation of syncytia (SIVmac251; 0.5 μM, 10 TCID50, 3 days) was “-”. For the same molecule, the formation of syncytia (SIVmac251; 0.5 μM, 10 TCID50, 5 days) was “+”, the formation of syncytia (SIVmac251; 0.5 μM, 100 TCID50, 3 days) was “+” and the formation of syncytia (SIVmac251; 1 μM, 10 TCID50, 3 days) was “-”. For the same molecule, the formation of syncytia (SIVmac251; 1 μM, 10 TCID50, 5 days) was “+”, the formation of syncytia (SIVmac251; 1 μM, 100 TCID50, 3 days) was “+” and the formation of syncytia (SIVmac251; 5 μM, 10 TCID50, 3 days) was “-”. The formation of syncytia (SIVmac251; 5 μM, 10 TCID50, 5 days) was “- and +”, the formation of syncytia (SIVmac251; 5 μM, 100 TCID50, 3 days) was “- and +” and the formation of syncytia (SIVmac251; 5 μM, 100 TCID50, 5 days) was “- and +”. The formation of syncytia (SIVmac251; 5 μM, 500 TCID50, 3 days) was “- and +”, the formation of syncytia (SIVmac251; 5 μM, 500 TCID50, 5 days) was “+ and -” and the formation of syncytia (SIVmac251; 10 μM, 10 TCID50, 3 days) was “-”. The formation of syncytia (SIVmac251; 10 μM, 10 TCID50, 5 days) was “-”, the formation of syncytia (SIVmac251; 10 μM, 100 TCID50, 3 days) was “-” and the formation of syncytia (SIVmac251; 10 μM, 100 TCID50, 5 days) was “- and +”. For the same molecule, the formation of syncytia (SIVmac251; 10 μM, 500 TCID50, 3 days) was “-”, the formation of syncytia (SIVmac251; 10 μM, 500 TCID50, 5 days) was “- and +” and the formation of syncytia (SIVmac251; 50 μM, 10 TCID50, 3 days) was “-”. The formation of syncytia (SIVmac251; 50 μM, 100 TCID50, 3 days) was “-”, the formation of syncytia (SIVmac251; 50 μM, 100 TCID50, 5 days) was “-” and the formation of syncytia (SIVmac251; 50 μM, 500 TCID50, 3 days) was “-”. The formation of syncytia (SIVmac251; 50 μM, 500 TCID50, 5 days) was “-”, the formation of syncytia (SIVmac251; 100 μM, 10 TCID50, 5 days) was “-” and the formation of syncytia (SIVmac251; 100 μM, 100 TCID50, 3 days) was “-”. The formation of syncytia (SIVmac251; 100 μM, 100 TCID50, 5 days) was “-”, the formation of syncytia (SIVmac251; 100 μM, 500 TCID50, 3 days) was “-” and the formation of syncytia (SIVmac251; 100 μM, 500 TCID50, 5 days) was “-”. For the same molecule, the “inhibition of formation of syncytia (in words)” value (SIVmac251; HUT78, SIV) was “in a dose-dependent manner”, the cytotoxicity (HUT78 cells; 50 μM, HIV2 table, 3 days) was “low cytotoxicity” and the cytotoxicity (HUT78 cells; 50 μM, SIV table, 3 days) was “low cytotoxicity”. The cytotoxicity (HUT78 cells; 100 μM, HIV2 table, 3 days) was “high cytotoxicity”, the cytotoxicity (HUT78 cells; 100 μM, HIV2 table, 5 days) was “cytotoxicity” and the cytotoxicity (HUT78 cells; 100 μM, SIV table, 3 days) was “high cytotoxicity”. The cytotoxicity (HUT78 cells; 100 μM, SIV table, 5 days) was “cytotoxicity” and the cytotoxic effect (HeLa-Ohio cells) was “no cytotoxic effect”.
